From PubChem BioAssay (NCI)
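Five compound concentrations were applied to cells in 96-well plates for 48 hours; endpoints were derived by simple linear interpolation of the resulting dose-response curve. At the TGI there is no net growth.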

Tests used:
Assay in all cases: DTP human tumour cell line panel, 48 h
SNB-75 CNS = system: SNB-75 CNS
MALME-3M melanoma = system: MALME-3M melanoma
SF-295 CNS = system: SF-295 CNS
CCRF-CEM leukemia = system: CCRF-CEM leukemia
MDA-N = system: MDA-N
A549 NSCLC = system: A549 NSCLC
SK-OV-3 ovarian = system: SK-OV-3 ovarian
HL-60(TB) leukemia = system: HL-60(TB) leukemia
SN12C renal = system: SN12C renal
OVCAR-3 ovarian = system: OVCAR-3 ovarian
HCT-15 colon = system: HCT-15 colon
HT29 colon = system: HT29 colon
PC-3 prostate = system: PC-3 prostate
NCI/ADR-RES ovarian = system: NCI/ADR-RES ovarian
NCI-H460 lung = system: NCI-H460 lung
K-562 leukemia = system: K-562 leukemia
SR leukemia = system: SR leukemia
KM12 colon = system: KM12 colon
SF-268 CNS = system: SF-268 CNS
UACC-257 melanoma = system: UACC-257 melanoma
RXF 393 renal = system: RXF 393 renal
ACHN renal = system: ACHN renal
MDA-MB-435 = system: MDA-MB-435
OVCAR-4 ovarian = system: OVCAR-4 ovarian
SNB-19 CNS = system: SNB-19 CNS
BT-549 breast = system: BT-549 breast
U251 CNS = system: U251 CNS
TK-10 renal = system: TK-10 renal
HCT-116 colon = system: HCT-116 colon
HCC-2998 colon = system: HCC-2998 colon
A498 renal = system: A498 renal
MDA-MB-231 breast = system: MDA-MB-231 breast
EKVX NSCLC = system: EKVX NSCLC
SF-539 CNS = system: SF-539 CNS
MCF7 breast = system: MCF7 breast
LOX IMVI melanoma = system: LOX IMVI melanoma
OVCAR-5 ovarian = system: OVCAR-5 ovarian
SK-MEL-28 melanoma = system: SK-MEL-28 melanoma
T-47D breast = system: T-47D breast
RPMI-8226 leukemia = system: RPMI-8226 leukemia
OVCAR-8 ovarian = system: OVCAR-8 ovarian
NCI-H226 lung = system: NCI-H226 lung
COLO 205 colon = system: COLO 205 colon
SK-MEL-5 melanoma = system: SK-MEL-5 melanoma
786-0 renal = system: 786-0 renal
M14 melanoma = system: M14 melanoma
MOLT-4 leukemia = system: MOLT-4 leukemia
HOP-62 NSCLC = system: HOP-62 NSCLC
HOP-92 NSCLC = system: HOP-92 NSCLC
UACC-62 melanoma = system: UACC-62 melanoma
CAKI-1 renal = system: CAKI-1 renal
DU-145 prostate = system: DU-145 prostate
HS 578T breast = system: HS 578T breast
SK-MEL-2 melanoma = system: SK-MEL-2 melanoma
NCI-H522 lung = system: NCI-H522 lung
SW-620 colon = system: SW-620 colon
IGROV1 ovarian = system: IGROV1 ovarian
NCI-H23 lung = system: NCI-H23 lung
UO-31 renal = system: UO-31 renal

## C/C(=N\O)c1cccc(Nc2nc3ccccc3c3occc23)c1
SNB-75 CNS
  TGI: 32.3 µM
MALME-3M melanoma
  TGI: 28.9 µM
SF-295 CNS
  TGI: 22.6 µM
CCRF-CEM leukemia
  TGI: 31 µM
MDA-N
  TGI: 27.9 µM
A549 NSCLC
  TGI: 32.5 µM
SK-OV-3 ovarian
  TGI: 28.7 µM
HL-60(TB) leukemia
  TGI: 61.1 µM
SN12C renal
  TGI: 33.6 µM
OVCAR-3 ovarian
  TGI: 31.8 µM
HCT-15 colon
  TGI: 22.4 µM
HT29 colon
  TGI: 15.6 µM
PC-3 prostate
  TGI: 25.8 µM
NCI/ADR-RES ovarian
  TGI: 29.7 µM
NCI-H460 lung
  TGI: 21 µM
K-562 leukemia
  TGI: 70.5 µM
SR leukemia
  TGI: 35.1 µM
KM12 colon
  TGI: 27.3 µM
SF-268 CNS
  TGI: 27.6 µM
UACC-257 melanoma
  TGI: 2.59 µM
RXF 393 renal
  TGI: 21 µM
ACHN renal
  TGI: 22.8 µM
MDA-MB-435
  TGI: 24 µM
OVCAR-4 ovarian
  TGI: 30.2 µM
SNB-19 CNS
  TGI: 39.8 µM
BT-549 breast
  TGI: 26.9 µM
U251 CNS
  TGI: > 100 µM
TK-10 renal
  TGI: 27.6 µM
HCT-116 colon
  TGI: 25.8 µM
HCC-2998 colon
  TGI: 28.9 µM
A498 renal
  TGI: 29.2 µM
MDA-MB-231 breast
  TGI: 26.4 µM
EKVX NSCLC
  TGI: 25.6 µM
SF-539 CNS
  TGI: 29.6 µM
MCF7 breast
  TGI: 37.1 µM
LOX IMVI melanoma
  TGI: 33.2 µM
OVCAR-5 ovarian
  TGI: 30.7 µM
SK-MEL-28 melanoma
  TGI: 29.2 µM
T-47D breast
  TGI: 44.7 µM
RPMI-8226 leukemia
  TGI: 31.8 µM
OVCAR-8 ovarian
  TGI: 32.8 µM
NCI-H226 lung
  TGI: 16.5 µM
COLO 205 colon
  TGI: 26.4 µM
SK-MEL-5 melanoma
  TGI: 27 µM
786-0 renal
  TGI: 26.7 µM
M14 melanoma
  TGI: 29.7 µM
MOLT-4 leukemia
  TGI: 32.9 µM
HOP-62 NSCLC
  TGI: 32.8 µM
HOP-92 NSCLC
  TGI: 20.2 µM
UACC-62 melanoma
  TGI: 5.22 µM
CAKI-1 renal
  TGI: 34.2 µM
DU-145 prostate
  TGI: 27.8 µM
HS 578T breast
  TGI: 32.8 µM

## COc1ccc(-c2nc(N)c3ncn(C4OC(CO)C(O)C4O)c3n2)cc1 (stereo not drawn)
SNB-75 CNS
  TGI: > 100 µM
MALME-3M melanoma
  TGI: > 100 µM
SK-MEL-2 melanoma
  TGI: > 100 µM
SF-295 CNS
  TGI: > 100 µM
CCRF-CEM leukemia
  TGI: > 100 µM
MDA-N
  TGI: > 100 µM
A549 NSCLC
  TGI: > 100 µM
SK-OV-3 ovarian
  TGI: > 100 µM
HL-60(TB) leukemia
  TGI: > 100 µM
SN12C renal
  TGI: > 100 µM
NCI-H522 lung
  TGI: > 100 µM
OVCAR-3 ovarian
  TGI: > 100 µM
HCT-15 colon
  TGI: > 100 µM
HT29 colon
  TGI: > 100 µM
PC-3 prostate
  TGI: > 100 µM
NCI/ADR-RES ovarian
  TGI: > 100 µM
NCI-H460 lung
  TGI: > 100 µM
K-562 leukemia
  TGI: > 100 µM
SR leukemia
  TGI: > 100 µM
KM12 colon
  TGI: > 100 µM
SF-268 CNS
  TGI: > 100 µM
UACC-257 melanoma
  TGI: > 100 µM
RXF 393 renal
  TGI: > 100 µM
ACHN renal
  TGI: > 100 µM
MDA-MB-435
  TGI: > 100 µM
OVCAR-4 ovarian
  TGI: > 100 µM
SNB-19 CNS
  TGI: > 100 µM
BT-549 breast
  TGI: > 100 µM
U251 CNS
  TGI: > 100 µM
TK-10 renal
  TGI: > 100 µM
HCT-116 colon
  TGI: > 100 µM
A498 renal
  TGI: > 100 µM
MDA-MB-231 breast
  TGI: > 100 µM
EKVX NSCLC
  TGI: > 100 µM
SF-539 CNS
  TGI: > 100 µM
MCF7 breast
  TGI: > 100 µM
LOX IMVI melanoma
  TGI: > 100 µM
OVCAR-5 ovarian
  TGI: > 100 µM
SK-MEL-28 melanoma
  TGI: > 100 µM
T-47D breast
  TGI: > 100 µM
SW-620 colon
  TGI: > 100 µM
RPMI-8226 leukemia
  TGI: > 100 µM
OVCAR-8 ovarian
  TGI: > 100 µM
NCI-H226 lung
  TGI: > 100 µM
COLO 205 colon
  TGI: > 100 µM
SK-MEL-5 melanoma
  TGI: > 100 µM
IGROV1 ovarian
  TGI: > 100 µM
786-0 renal
  TGI: > 100 µM
M14 melanoma
  TGI: > 100 µM
MOLT-4 leukemia
  TGI: > 100 µM
HOP-62 NSCLC
  TGI: > 100 µM
NCI-H23 lung
  TGI: > 100 µM
HOP-92 NSCLC
  TGI: > 100 µM
UACC-62 melanoma
  TGI: > 100 µM
CAKI-1 renal
  TGI: > 100 µM
DU-145 prostate
  TGI: > 100 µM
HS 578T breast
  TGI: > 100 µM

## COC1CC2C=CC3C4OC2(/C(C)=C/C(C)C(C(C)O)OC1=O)C3C(O)C(C)C4OC(=O)c1ccc[nH]1 (stereo not drawn)
SK-MEL-2 melanoma
  TGI: > 100 µM
SF-295 CNS
  TGI: > 100 µM
CCRF-CEM leukemia
  TGI: > 100 µM
MDA-N
  TGI: > 100 µM
A549 NSCLC
  TGI: > 100 µM
HL-60(TB) leukemia
  TGI: 63.3 µM
SN12C renal
  TGI: > 100 µM
NCI-H522 lung
  TGI: > 100 µM
OVCAR-3 ovarian
  TGI: > 100 µM
HCT-15 colon
  TGI: > 100 µM
HT29 colon
  TGI: > 100 µM
PC-3 prostate
  TGI: > 100 µM
NCI/ADR-RES ovarian
  TGI: > 100 µM
NCI-H460 lung
  TGI: > 100 µM
SR leukemia
  TGI: 77 µM
KM12 colon
  TGI: > 100 µM
SF-268 CNS
  TGI: > 100 µM
UACC-257 melanoma
  TGI: > 100 µM
ACHN renal
  TGI: > 100 µM
MDA-MB-435
  TGI: > 100 µM
OVCAR-4 ovarian
  TGI: > 100 µM
SNB-19 CNS
  TGI: > 100 µM
BT-549 breast
  TGI: > 100 µM
U251 CNS
  TGI: > 100 µM
TK-10 renal
  TGI: > 100 µM
HCT-116 colon
  TGI: > 100 µM
HCC-2998 colon
  TGI: > 100 µM
A498 renal
  TGI: > 100 µM
MDA-MB-231 breast
  TGI: > 100 µM
EKVX NSCLC
  TGI: > 100 µM
SF-539 CNS
  TGI: > 100 µM
MCF7 breast
  TGI: > 100 µM
LOX IMVI melanoma
  TGI: > 100 µM
OVCAR-5 ovarian
  TGI: > 100 µM
SK-MEL-28 melanoma
  TGI: > 100 µM
T-47D breast
  TGI: > 100 µM
UO-31 renal
  TGI: > 100 µM
SW-620 colon
  TGI: > 100 µM
RPMI-8226 leukemia
  TGI: > 100 µM
OVCAR-8 ovarian
  TGI: > 100 µM
COLO 205 colon
  TGI: > 100 µM
SK-MEL-5 melanoma
  TGI: > 100 µM
IGROV1 ovarian
  TGI: > 100 µM
786-0 renal
  TGI: > 100 µM
M14 melanoma
  TGI: > 100 µM
MOLT-4 leukemia
  TGI: 71.2 µM
HOP-62 NSCLC
  TGI: > 100 µM
NCI-H23 lung
  TGI: > 100 µM
HOP-92 NSCLC
  TGI: > 100 µM
UACC-62 melanoma
  TGI: > 100 µM
CAKI-1 renal
  TGI: > 100 µM
DU-145 prostate
  TGI: > 100 µM
HS 578T breast
  TGI: > 100 µM
